EPA's ToxRefDB 2

Tests used:
[1] = system: rat; conditions: Multigenerational reproductive toxicity study, fischer, Oral, Feed, dose end: 2 generation
[2] = system: rat; conditions: Combined chronic toxicity/carcinogenicity, fischer, Oral, Feed, dose end: 24 month, group: systemic
[3] = system: rat; conditions: Prenatal developmental toxicity study, sprague dawley, Oral, Gavage/Intubation, dose end: 15 GD
[4] = system: mouse; conditions: Carcinogenicity, b6c3f1, Oral, Feed, dose end: 24 month, group: systemic
[5] = system: rabbit; conditions: Prenatal developmental toxicity study, new zealand white, Oral, Gavage/Intubation, dose end: 18 GD
[6] = system: mouse; conditions: Subchronic oral toxicity in rodents, b6c3f1, Feed, dose end: 96 day, group: systemic, systemic / organ weight / liver / absolute + systemic / organ weight / liver / relative to body weight + systemic / organ weight / liver / …
[7] = system: mouse; conditions: Carcinogenicity, b6c3f1, Oral, Feed, dose end: 24 month, group: systemic; remark: listed apart in the source
[8] = system: dog; conditions: Chronic toxicity; beagle; Oral; Feed; dose end: 53 week; group: systemic; systemic / clinical chemistry / alkaline phosphatase (alp/alk) / alkaline phosphatase (alp/alk) + systemic / clinical chemistry / …
[9] = group: offspring, systemic / in life observation / body weight / offspring (pup) weight + systemic / pathology microscopic / liver / vacuolization
[10] = group: parental, systemic / organ weight / liver / absolute + systemic / organ weight / liver / relative to body weight
[11] = systemic / in life observation / body weight / body weight gain + systemic / pathology microscopic / kidney / adenocarcinoma + systemic / …
[12] = group: developmental, developmental / developmental malformation / bone / incomplete ossification + developmental / developmental malformation / bone / short …
[13] = group: maternal, systemic / in life observation / body weight / body weight + systemic / in life observation / body weight / body weight gain + systemic / in…
[14] = systemic / pathology gross / intestine small / discolored + systemic / pathology microscopic / intestine small / [other] + systemic / …
[15] = group: developmental, developmental / developmental malformation / bone / misshapen
[16] = group: maternal, systemic / in life observation / body weight / body weight gain + systemic / organ weight / liver / absolute + systemic / organ weight / …
[17] = systemic / pathology microscopic / intestine small / hyperplasia + systemic / pathology microscopic / intestine small / hypertrophy + …

Compound Clc1cccc(C(Cl)(Cl)Cl)n1 [Nitrapyrin] has an LOAEL [1, 9] of 75 mg/kg/day, an NEL [1, 9] of 20 mg/kg/day and an NOAEL [1, 9] of 20 mg/kg/day. For the same compound, the LEL ([1]; group: offspring, systemic / in life observation / body weight / offspring (pup) weight + systemic / pathology microscopic / liver / vacuolization + systemic…) was 75 mg/kg/day, the NOAEL ([1]; group: parental, systemic / organ weight / kidney / absolute + systemic / organ weight / kidney / relative to body weight + systemic / in life observation / …) was 5 mg/kg/day and the LOAEL ([1]; group: parental, systemic / organ weight / kidney / absolute + systemic / organ weight / kidney / relative to body weight + systemic / organ weight / liver…) was 20 mg/kg/day. The LEL [1, 10] was 5 mg/kg/day, the NEL [1, 10] was less than 5 mg/kg/day and the LOAEL ([2]; systemic / in life observation / body weight / body weight gain) was 20 mg/kg/day. For the same compound, the LEL ([2]; systemic / in life observation / body weight / body weight gain + systemic / in life observation / body weight / body weight) was 20 mg/kg/day, the NEL [2, 11] was 5 mg/kg/day and the NOAEL [2, 11] was 5 mg/kg/day. For the same compound, the LEL [3, 12] was 120 mg/kg/day, the LOAEL [3, 12] was 120 mg/kg/day and the NEL [3, 12] was 50 mg/kg/day. It also gave an NOAEL [3, 12] of 50 mg/kg/day, an LOAEL [3, 13] of 120 mg/kg/day and an NEL [3, 13] of 15 mg/kg/day. It also gave an NOAEL [3, 13] of 50 mg/kg/day, an LEL ([3]; group: maternal, systemic / in life observation / body weight / body weight gain) of 50 mg/kg/day and an LOAEL [4, 14] of 75 mg/kg/day. The NEL [4, 14] was 5 mg/kg/day, the NOAEL [4, 14] was 25 mg/kg/day and the LEL ([4]; systemic / pathology microscopic / intestine small / [other] + systemic / pathology gross / intestine small / discolored + systemic / …) was 25 mg/kg/day. It also gave an LEL [5, 15] of 30 mg/kg/day, an LOAEL [5, 15] of 30 mg/kg/day and an NEL [5, 15] of 10 mg/kg/day. The NOAEL [5, 15] was 10 mg/kg/day, the LEL [5, 16] was 30 mg/kg/day and the LOAEL [5, 16] was 30 mg/kg/day. It also gave an NEL [5, 16] of 10 mg/kg/day, an NOAEL [5, 16] of 10 mg/kg/day and an LEL [6] of 200 mg/kg/day. The LOAEL [6] was 200 mg/kg/day, the NEL [6] was less than 200 mg/kg/day and the NOAEL [6] was less than 200 mg/kg/day. The LOAEL [7, 17] was 125 mg/kg/day, the NOAEL [7, 17] was less than 125 mg/kg/day and the NEL ([7]; systemic / pathology microscopic / liver / hypertrophy + systemic / pathology microscopic / stomach / hyperkeratosis + systemic / pathology …) was 250 mg/kg/day. The LEL [8] was 15 mg/kg/day, the LOAEL [8] was 15 mg/kg/day and the NEL [8] was 3 mg/kg/day. It also gave an NOAEL [8] of 3 mg/kg/day.
